Test results as given in patent US7094754B2, “Anti-aging and wound healing compounds” (Kimberly-Clark Worldwide, Inc., priority 2001, dated 2006).

Experiments:
pro-MMP-9 = pro-MMP-9 (Homo sapiens, UniProt P14780); experiment: Anti-activation (splicing) assay, pro-MMP-9 with stromilysin, HPLC; format: biochemical; conditions: 0.5 μM or 1.0 μM peptide, 80 minute time course
Protocol: FIG. 12 illustrates the conversion of pro-MMP-9 into N-terminal and C-terminal domains by stromilysin. […] At the times indicated, an aliquot was removed and subjected to HPLC. The pro-MMP peak area was integrated and was set to 100 percent for the zero time point sample.
The assay measures how much proenzyme is converted into mature matrix metalloproteinase. Proenzyme pro-MMP-9 (100 μg) was mixed with 0.5 μg of stromilysin in PBS. The reaction was incubated at 35° C. Aliquots were removed from the reaction over an 80 minute time course. […] The zero (injection) time point was a single peak that elutes from the column in approximately 750 seconds. This peak reduces in size as a function of time, and two new peaks appear. The first peak elutes at approximately 800 seconds, and represents the mature form of MMP-9. The second peak elutes at approximately 1100 seconds, and corresponds to the N-terminal pro-domain fragment. Peak areas were determined by integrating over the elution profile, and the percent area changes were plotted.
The first peak, eluting at approximately 700 seconds, is pro-MMP-9. As the splicing reaction proceeds, this peak decreases in intensity (as marked with the downwards arrow), and two new peaks appear. The first new peak, eluting at approximately 800 seconds, is mature and active MMP-9. The second new peak, eluting at approximately 1050 seconds, is the prodomain. […]

[1] = test system: human skin fibroblast cell line (Clonetics, CC-2509); experiment: Collagen production in human skin fibroblasts (Takara EIA kit); format: cell-based; conditions: for collagen production, Median (absorbance at 450 nm) / collagen production, Mean (absorbance at 450 nm): 48 hours; for collagen production, Mean (absorbance at 450 nm): n=2, control mean 0.7388
Protocol: The stimulation response of the 19mer peptide (SEQ ID NO:11) on collagen production in the human skin fibroblast cell line (Clonetics, Walkersville, Md., normal human dermal fibroblasts, neonatal, catalog number CC-2509) was measured using Takara Biomedicals EIA assay kit (TAK MK101) sold by Panvera (Madison, Wis.). The cells were first grown in a 96-well assay system using Dulbecco's Modified Eagle's Medium (DMEM) with 10% fetal bovine serum (FBS) both purchased from Sigma Chemical Co, St. Louis, Mo. Serum-free DMEM was used as a control. […] Plates were incubated for 24 hours at 37° C. in a humidified 5% CO2 atmosphere. After incubation, the medium was aspirated and the wells were rinsed twice with 100 μl of serum-free DMEM. […] In addition, 100 μl of vehicle (serum-free DMEM) was added to 4 wells as control. All wells were incubated for 48 hours at 37° C. in a humidified, 5% CO2 atmosphere.
The assay was performed using the recommended 20 ul of the supernatant from each well of the 96-well plate. Standard buffer and stop solutions were freshly prepared before running the assay. 100 ul of antibody-POD conjugate solution (supplied with the kit) was added into the wells using pre antibody coated 96 well plate (supplied with the kit). 20 ul of standard and test solutions (from the other 96-well plate containing fibroblasts) were added to appropriate wells. Plate was mixed gently, sealed and incubated for three hrs. at 37° C.
After incubation each well was washed carefully four times with PBS buffer (400 ul). All the wells were completely emptied at the end of washing from any liquid. 100 ul of substrate solution (hydrogen peroxide and tetramethylbenzidine in a buffer solution, supplied with the kit) was added to each well and the plate was incubated for 15 minutes. At this point 100 ul of stop solution (freshly prepared 1N H2SO4) was added to each well in the same order as substrate. The plate was gently mixed and absorbance was read at 450 nm. Results were analyzed statistically using one-way ANOVA.

Chain of pro-MMP-9 (P14780 20-707): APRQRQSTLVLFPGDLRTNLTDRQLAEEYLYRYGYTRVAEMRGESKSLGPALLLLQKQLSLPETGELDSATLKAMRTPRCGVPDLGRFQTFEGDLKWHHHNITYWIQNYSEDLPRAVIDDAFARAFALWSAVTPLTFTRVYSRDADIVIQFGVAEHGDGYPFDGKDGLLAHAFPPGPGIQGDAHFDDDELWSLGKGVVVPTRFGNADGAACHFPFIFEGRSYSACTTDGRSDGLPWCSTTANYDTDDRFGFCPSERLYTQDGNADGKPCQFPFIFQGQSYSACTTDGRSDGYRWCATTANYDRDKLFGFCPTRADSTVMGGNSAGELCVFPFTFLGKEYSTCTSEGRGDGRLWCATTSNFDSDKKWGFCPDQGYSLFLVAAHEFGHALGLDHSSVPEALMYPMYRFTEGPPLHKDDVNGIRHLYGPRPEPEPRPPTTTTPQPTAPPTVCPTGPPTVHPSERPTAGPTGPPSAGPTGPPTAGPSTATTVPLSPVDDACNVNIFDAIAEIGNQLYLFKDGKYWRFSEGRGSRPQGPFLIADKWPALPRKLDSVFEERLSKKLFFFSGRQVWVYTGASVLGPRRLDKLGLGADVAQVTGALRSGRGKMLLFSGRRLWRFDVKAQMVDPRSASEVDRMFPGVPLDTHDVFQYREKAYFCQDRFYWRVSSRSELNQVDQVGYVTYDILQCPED

CC(C)[C@H](NC(=O)[C@H](CC(=O)O)NC(=O)[C@@H]1CCCN1C(=O)[C@H](CC(N)=O)NC(=O)CNC(=O)[C@H](CS)NC(=O)[C@H](CCCNC(=N)N)NC(=O)[C@@H]1CCCN1)C(=O)N[C@@H](C)C(=O)N[C@@H](CC(N)=O)C(=O)N[C@@H](Cc1ccc(O)cc1)C(=O)N[C@@H](CC(N)=O)C(=O)N[C@@H](Cc1ccccc1)C(=O)N[C@@H](Cc1ccccc1)C(=O)N1CCC[C@H]1C(=O)N[C@@H](CCCNC(=N)N)C(=O)N[C@@H](CCCCN)C(=O)N1CCC[C@H]1C(=O)N[C@@H](CCCCN)C(=O)O [19-mer]
conversion of pro-MMP-9 into prodomain and active enzyme by stromilysin (pro-MMP-9): prevents the conversion of pro-MMP-9 into the prodomain and the active enzyme
collagen production, Median (absorbance at 450 nm) ([1]; 1×10^−5 M): 0.8365
collagen production, Mean (absorbance at 450 nm) ([1]; 1×10^−5 M): 0.8365
collagen production, Median (absorbance at 450 nm) ([1]; 1×10^−6 M): 0.8315
collagen production, Mean (absorbance at 450 nm) ([1]; 1×10^−6 M): 0.8315
collagen production versus control ([1]; 10^−5 and 10^−6 M, P<0.001): increased collagen production at both concentrations employed
